Measured values from patent US20250353891A1 (MEDIMMUNE LIMITED, priority 2022, published 2025).
Like-named read-outs stand apart in the source and are kept apart here. Starred links: 1 amine or outer side, 2 acyl side, 3 side chain; linkers in the order of their positions; H or OH if unused. Non-standard residues stand in square brackets, D forms with d. Residues, ends and D or L forms follow the SMILES beside them. Groups on a side chain read outwards from the residue. *: point of attachment. C18 diacid = O=C(O)CCCCCCCCCCCCCCCCC(=O)*; γGlu = O=C(O)[C@H](CCC(=O)[*:2])N[*:1]; Stearoyl = CCCCCCCCCCCCCCCCCC(=O)*; αMeF = C[C@](N)(Cc1ccccc1)C(=O)O; PEG2 = NCCOCCOCCC(=O)O; AEEA = NCCOCCOCC(=O)O; Aib = CC(C)(N)C(=O)O

Columns and labels:
[1] = Proteolytic resistance to FasSSGF containing porcine pancreatic pepsin; assay type: in vitro ADME; conditions: pig, simulated gastric fluid
Protocol: Stimulated Gastric Fluid (FasSSGF) Containing Porcine Pancreatic Pepsin Lyophilized porcine pancreatic pepsin (Sigma: P7012) was reconstituted to 0.5 mg/mL (˜2500 units/mL) in freshly prepared FasSSGF (Biorelevant media) to give the enzyme stock solution. Peptide stock solution was prepared to a concentration of 250 μM (˜1.0 mg/mL) in FasSSGF. 200 μL ([…], ˜250 units) of pepsin stock solution was added to 200 μL of peptide solution (1.0 mg/mL, ˜100 μg of peptide, ˜25 nmoles) and the mixture was co-incubated in a temperature-regulated incubator at 37° C. for the duration of the experiment. 30 μL aliquot of the peptide-enzyme mixture was periodically withdrawn (t=0, 5, 10, 15, and 30 min) and quenched immediately by addition of 80 μL of 0.1M ammonium bicarbonate solution in water/acetonitrile (4:1, pH 8) to arrest proteolytic activity. 30 μL aliquot was analyzed by analytical RP-HPLC. Analytical RP-HPLC method: Agilent Polaris C8-A column (4.6×100 mm, 3 micron) eluted with a linear binary gradient of 10-90% MeCN (0.1% TFA v/v) in water (0.1% TFA v/v) over either 10 or 15 mins at 1.5 mL min-1 at 40° C. with detection by UV absorption at 210 nm. Manual integration (AUC) allowed estimation of remaining intact peptide over the time course of the experiment.

recombinant Neprilysin = target: T1, recombinant Neprilysin (Homo sapiens, UniProt P08473); experiment: Proteolytic resistance to neprilysin; assay type: in vitro ADME; conditions: pH 8.3; for remaining at 4 h / remaining at 24 h: isolated enzyme neprilysin
T1 construct: purchased R&D Systems 1182-ZNC-010
T1 sequence (P08473 52-750 limits assumed): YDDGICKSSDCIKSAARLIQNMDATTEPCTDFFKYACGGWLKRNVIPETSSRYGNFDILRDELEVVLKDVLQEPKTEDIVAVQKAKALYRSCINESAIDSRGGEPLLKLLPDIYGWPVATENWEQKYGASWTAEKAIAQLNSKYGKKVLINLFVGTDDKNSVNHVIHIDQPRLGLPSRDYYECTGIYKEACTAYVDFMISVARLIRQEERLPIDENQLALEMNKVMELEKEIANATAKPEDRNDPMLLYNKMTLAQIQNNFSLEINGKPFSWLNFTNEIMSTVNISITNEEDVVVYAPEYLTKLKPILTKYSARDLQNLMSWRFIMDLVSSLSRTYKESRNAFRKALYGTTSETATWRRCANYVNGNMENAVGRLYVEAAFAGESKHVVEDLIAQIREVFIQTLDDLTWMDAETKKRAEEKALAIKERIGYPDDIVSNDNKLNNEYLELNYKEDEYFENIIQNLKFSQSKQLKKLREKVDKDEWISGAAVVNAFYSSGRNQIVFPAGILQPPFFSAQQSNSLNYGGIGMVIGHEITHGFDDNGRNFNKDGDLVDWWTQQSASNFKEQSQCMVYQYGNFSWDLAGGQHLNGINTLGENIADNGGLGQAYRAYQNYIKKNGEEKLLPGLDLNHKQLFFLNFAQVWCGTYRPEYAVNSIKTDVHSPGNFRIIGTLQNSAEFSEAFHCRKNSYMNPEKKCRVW
Protocol: 10.0 μg (˜10 units) recombinant Neprilysin (R&D Systems: 1182-ZNC-010) was reconstituted to 100 μL (100 μg/mL, ˜100 units/mL) in assay buffer (50 mM Tris, 50 mM NaCl, 50 mM NaHCO3, adjusted to pH 8.3) to give the enzyme stock solution. Peptide stock solutions were prepared to a concentration of ˜250 μM (˜1.0 mg/mL of 4 kDa peptide) in assay buffer. 100 μL (10 μg, ˜10 units) of neprilysin stock solution was added to 100 μL of peptide stock solution (1.0 mg/mL, ˜100 μg of peptide) and the mixture was co-incubated in a temperature regulated incubator at 37° C. for the duration of the experiment. 25 μL aliquots (˜ 12.5 μg initial peptide) of the peptide-enzyme mixture were periodically withdrawn (t=0, 30 mins, 1 h, 2 h, 4 h and 24 h) and quenched immediately by addition to an equal volume ([…]) of 10% TFA (v/v) in 1:1 water/acetonitrile to arrest proteolytic activity. The quenched aliquot centrifuged at 7800 rpm, and 30 μL of the supernatant was analyzed by analytical RP-HPLC as follows: Analytical RP-HPLC method: Agilent Polaris C8-A column (4.6×100 mm, 3 micron) eluted with a linear binary gradient of 10-90% MeCN (0.1% TFA v/v) in water (0.1% TFA v/v) over either 10 or 15 mins at 1.5 mL min-1 at 40° C. with detection by UV absorption at 210 nm. Manual integration (AUC) allowed estimation of remaining intact peptide over the time course of the experiment.

[2] = Proteolytic resistance to FasSSIF/Pancreatin; assay type: in vitro ADME; conditions: simulated intestinal fluid
Procedure, shortened: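 Peptide (1.0 mg) in pre-warmed FasSSIF, proteolysis started with fresh FasSSIF/USP Pancreatin and held at 37 °C. Aliquots at 0, 5, 10, 15, 30 min quenched in 10% TFA; remaining intact peptide estimated by RP-HPLC peak area, UV 210 nm.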

[3] = tested on: GLP-1R knockout (KO) mice; experiment: Glucose change in GLP-1R knockout mice; assay type: in vivo, mouse; conditions: GLP-1R KO mice, s.c., 3 nmol/kg, 120 min vs 0 min, no somatostatin pretreatment
Procedure, shortened: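 GLP-1R knockout mice (n=4-8/group, sorted by body weight) were fasted 2 h, and in some studies pretreated with octreotide 10 mg/kg 30 min before peptide injection. Mice were reused up to 3 times with at least 1-week wash-out.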

wildtype (WT) mice = experiment: Glucose change in wildtype mice; assay type: in vivo, mouse; conditions: s.c., 3 nmol/kg, 120 min vs 0 min, no somatostatin pretreatment
Procedure, shortened: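 Wildtype mice aged 8-14 weeks, fasted 2 h, sometimes pre-treated with octreotide 10 mg/kg 30 min before peptide injection. Blood glucose by glucometer at -30, 0, 30, 60, 120, 180, 240 and 360 min; n=4-8/group, mice reused up to 3 times with ≥1 week wash-out.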

[4] = target: human GLP-1 receptor (hGLP-1R) (Homo sapiens, UniProt P43220); experiment: cAMP production (HTRF) in CHO cells expressing hGLP-1R; assay type: cell-based; set-up: expressed in transfected cells; conditions: for EC50: cAMP in CHO hGLP-1R cells, geometric mean, read-out: hGLP-1R EC50; for % Relative Potency Ratio: % GLP-1R activity relative to GLP-1 / % GlucR activity relative to glucagon
Chain of human GLP-1 receptor (hGLP-1R) (P43220 24-463): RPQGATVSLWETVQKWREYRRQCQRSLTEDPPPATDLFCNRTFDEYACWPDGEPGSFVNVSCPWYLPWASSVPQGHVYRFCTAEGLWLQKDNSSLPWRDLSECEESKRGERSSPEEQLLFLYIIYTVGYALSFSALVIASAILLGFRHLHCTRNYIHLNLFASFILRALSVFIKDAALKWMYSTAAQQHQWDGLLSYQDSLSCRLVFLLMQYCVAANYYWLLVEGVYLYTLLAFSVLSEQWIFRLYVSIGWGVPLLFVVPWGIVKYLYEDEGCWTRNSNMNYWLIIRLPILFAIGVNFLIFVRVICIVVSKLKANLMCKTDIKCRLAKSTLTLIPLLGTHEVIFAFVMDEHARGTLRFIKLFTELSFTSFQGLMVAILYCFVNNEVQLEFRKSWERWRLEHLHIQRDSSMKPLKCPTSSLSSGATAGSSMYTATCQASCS
Procedure, shortened: (§1)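 Cells were resuspended in assay buffer at batch-optimized density, typically 1×10^5 cells/mL for hGLP-1R and 2×10^5 cells/mL for hGCGR. After 30 min incubation at room temperature with compound, cAMP was measured by two-step HTRF. EC50 values came from 4-parameter logistic fits of % Delta F.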

[5] = target: human glucagon receptor (hGCGR) (Homo sapiens, UniProt P47871); experiment: cAMP production (HTRF) in CHO cells expressing hGCGR; assay type: cell-based; set-up: expressed in transfected cells; conditions: cAMP in CHO hGCGR cells, geometric mean, read-out: hGluc-R EC50
Chain of human glucagon receptor (hGCGR) (P47871 26-477): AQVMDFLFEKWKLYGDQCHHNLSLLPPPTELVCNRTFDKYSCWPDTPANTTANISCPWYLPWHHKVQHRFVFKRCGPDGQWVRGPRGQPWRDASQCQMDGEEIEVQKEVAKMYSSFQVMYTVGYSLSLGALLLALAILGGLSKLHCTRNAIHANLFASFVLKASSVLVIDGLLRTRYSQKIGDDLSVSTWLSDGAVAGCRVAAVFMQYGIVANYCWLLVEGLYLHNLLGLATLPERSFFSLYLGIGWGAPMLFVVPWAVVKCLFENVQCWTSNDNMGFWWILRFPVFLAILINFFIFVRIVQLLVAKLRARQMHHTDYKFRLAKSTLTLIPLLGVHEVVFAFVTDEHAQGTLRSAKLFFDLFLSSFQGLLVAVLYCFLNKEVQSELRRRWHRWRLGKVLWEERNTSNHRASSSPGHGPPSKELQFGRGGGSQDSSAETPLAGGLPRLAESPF
Procedure, shortened: as §1

[6] = Table 6, peptides modified at position 17
[7] = Table 7, peptides modified at position 20

remaining at 0.25 h, 125 µM [1] [%] | remaining at 0.5 h, 125 µM [1] [%] | remaining at 4 h (recombinant Neprilysin) [%] | remaining at 24 h (recombinant Neprilysin) [%] | % intact peptide over time (recombinant Neprilysin) [%] | remaining at 5 min, 3.3 mg/mL [2] [%] | remaining at 10 min, 3.3 mg/mL [2] [%] | remaining at 0.25 h, 3.3 mg/mL [2] [%] | remaining at 0.5 h, 3.3 mg/mL [2] [%] | EC50 [4, 6] [nM] | % Relative Potency Ratio ([4]; Table 6) | EC50 [5, 6] [nM] | EC50 [4, 7] [nM] | % Relative Potency Ratio ([4]; Table 7) | EC50 [5, 7] [nM] | Structure (SMILES) | GLP-1R KO % glucose change 120 min [3] [%] | WT % glucose change 120 min (wildtype (WT) mice) [%]
100 | 100 | 100 | 100 | 100 | 83 | 76 | 69 | 58 | 0.00114 | 15.6 | 0.00897 |  |  |  | CCCCCCCCCCCCCCCCCC(=O)N[C@@H](CCC(=O)N[C@@H](CCC(=O)NCCOCCOCCC(=O)NCCOCCOCCC(=O)NCCCC[C@H](NC(=O)[C@H](CO)NC(=O)[C@H](CC(=O)O)NC(=O)[C@H](CC(C)C)NC(=O)[C@](C)(Cc1ccccc1)NC(=O)[C@H](CCCCN)NC(=O)[C@H](CO)NC(=O)[C@@H](NC(=O)[C@H](CC(=O)O)NC(=O)[C@H](CO)NC(=O)[C@@H](NC(=O)[C@](C)(Cc1ccccc1)NC(=O)[C@H](CO)NC(=O)CNC(=O)[C@H](CCC(N)=O)NC(=O)[C@H](CO)NC(=O)[C@@H](N)Cc1c[nH]cn1)[C@@H](C)O)C(C)C)C(=O)N[C@@H](C)C(=O)N[C@@H](C)C(=O)N[C@@H](CCC(N)=O)C(=O)N[C@@H](CC(=O)O)C(=O)N[C@@](C)(Cc1ccccc1)C(=O)N[C@H](C(=O)N[C@@H](CCC(N)=O)C(=O)NC(C)(C)C(=O)N[C@@H](CC(C)C)C(=O)N[C@@H](CCC(=O)O)C(=O)N[C@@H](C)C(=O)NCC(=O)NCC(N)=O)C(C)C)C(=O)O)C(=O)O [Peptide 78] (H-HSQGS[αMeF]TSDVSK[αMeF]LDSK([PEG2-PEG2-γGlu-γGlu-Stearoyl])AAQD[αMeF]VQ[Aib]LEAGG-NH2; N-terminus assumed) | 51.3 | −42.0
0 | 0 | 77 | 59 | 100 |  |  |  |  |  |  |  | 0.0275 | 1.9 | 0.0265 | CC[C@H](C)[C@H](NC(=O)C(C)(C)NC(=O)[C@H](CCC(N)=O)NC(=O)[C@@H](NC(=O)[C@H](Cc1ccccc1)NC(=O)[C@H](CC(=O)O)NC(=O)[C@H](CCCCNC(=O)COCCOCCNC(=O)COCCOCCNC(=O)CC[C@H](NC(=O)CCCCCCCCCCCCCCCCC(=O)O)C(=O)O)NC(=O)[C@H](C)NC(=O)[C@H](C)NC(=O)[C@H](CCCNC(=N)N)NC(=O)[C@H](CO)NC(=O)[C@H](CC(=O)O)NC(=O)[C@H](CC(C)C)NC(=O)[C@](C)(Cc1ccccc1)NC(=O)[C@H](CCCCN)NC(=O)[C@H](CO)NC(=O)[C@@H](NC(=O)[C@H](CC(=O)O)NC(=O)[C@H](CO)NC(=O)[C@@H](NC(=O)[C@](C)(Cc1ccccc1)NC(=O)[C@H](CO)NC(=O)CNC(=O)[C@H](Cc1c[nH]cn1)NC(=O)C(C)(C)NC(=O)[C@@H](N)Cc1c[nH]cn1)[C@@H](C)O)C(C)C)C(C)C)C(=O)N[C@@H](C)C(=O)N[C@@H](CC(N)=O)C(=O)N[C@H](C(N)=O)[C@@H](C)O [Peptide 287] (H-H[Aib]HGS[αMeF]TSDVSK[αMeF]LDSRAAK([AEEA-AEEA-γGlu-C18 diacid])DFVQ[Aib]IANT-NH2) |  | 
